In patent US20060014801A1, “Prevention and treatment of cognitive impairment using (R)-(-)-5-methyl-1-nicotynoyl-2-pyrazoline (MNP) and analogs” (The Johns Hopkins University, priority 2002, published 2006):

Tested on: aged impaired (AI) rats
Assay type: in vivo
Details: 50 mg/kg/day s.c. minipump
Method: Spatial memory version of the Morris water maze: Behavioral testing is conducted by an experimenter who is blind to drug treatment. Fourteen 25-27 month-old Long-Evans rats, previously characterized as cognitively impaired (AI rats), were tested in a modified version of the Morris water maze (MWM) task using the same MWM apparatus as described above. Unlike the traditional protocol wherein the platform location remained constant throughout training, the escape platform location in this spatial memory version of the task varied from day-to-day (in one of nine different positions).
AI rats were given six training trials per day with a 60-sec intertrial interval. On each training trial, the rat was released in the maze from one of four equally spaced starting positions around the perimeter of the pool. […] Following the six training trials, the rat is returned to its home cage and placed in the animal housing room. After a delay of four hours, the rat is given one additional testing trial (the “retention trial”) with the escape platform located in the same position as in the 6 training trials. The length of the rat's swim path to reach the escape platform is measured in all six training trials and the retention trial. Spatial memory in this task is measured by comparing the swim path lengths in the retention trial with the sixth (and final) training trial. […] A greater difference in performance in these two trials represents a greater degree of forgetting. After two days of acclimation to these procedures, this test protocol is given for nine consecutive days, with the position of the escape platform moved daily.
MNP enhances the cognitive performance of aged rats in the spatial memory version of the MWM: Following characterization for cognitive status with a traditional MWM protocol, impaired aged rats were assigned to one of two treatment conditions (vehicle controls or MNP). […] AI rats were pretreated with either vehicle or MNP for 9 days prior to behavioral testing. Osmotic minipumps (Alzet) were filled with either vehicle (0.9% saline) or MNP (50 mg/kg/day) and implanted subcutaneously. Initially, Alzet pumps that administer compound for one week were implanted; after seven days, these pumps (now empty) were removed and replaced with full two-week pumps allowing delivery of either MNP or saline for a total of 21 days. On Day 9 of treatment with either vehicle or MNP, MWM testing was begun. Data were collected in two replications with vehicle- and drug-treated rats represented in each. A total of 9 vehicle-treated and 5 MNP-treated rats completed the entire protocol. Several rats in both treatment groups, however, died during the execution of the study. […]

SMILES: C[C@@H]1CC=NN1C(=O)c1cccnc1 [MNP, (R)-(−)-5-methyl-1-nicotinoyl-2-pyrazoline]
- Difference in performance between final training trial and retention trial (4-hour delay): no significant difference in performance
- Performance in retention trials vs vehicle-treated controls (4-hour delay, Days 9-11 of treatment): performed significantly better
- Savings scores (memory for the platform location) vs vehicle-treated controls (Mann Whitney U test p<0.05): significantly better than vehicle-treated controls
- Performance on training trials 1-6 vs vehicle group (two-way analysis of variance): no significant difference between the groups
